Eleven molecules from ChEMBL document CHEMBL1147935, “Synthesis and antihypertensive activity of novel 3-benzyl-2-substituted-3H-[1,2,4]triazolo[5,1-b]quinazolin-9-ones” (2007) can be followed below.

Common to all, as to type: functional
Common to all, as to design: scale not given: the % may be the effect or the level left

In assay [1] the test system is Rattus norvegicus. The assay can be described thus: Antihypertensive activity in spontaneously hypertensive rat assessed as decrease in blood pressure at 5 mg/kg, po after 2 hrs by tail cuff method.
Assay [2] concerns Rattus norvegicus. The assay can be described thus: Antihypertensive activity in spontaneously hypertensive rat assessed as decrease in blood pressure at 5 mg/kg, po after 5 hrs by tail cuff method.
The test system of assay [3] is Rattus norvegicus. The assay can be described thus: Antihypertensive activity in spontaneously hypertensive rat assessed as decrease in blood pressure at 5 mg/kg, po after 1 hr by tail cuff method.
In assay [4] the test system is Rattus norvegicus. Briefly: Antihypertensive activity in spontaneously hypertensive rat assessed as decrease in blood pressure at 5 mg/kg, po after 3 hrs by tail cuff method.
Assay [5] concerns Rattus norvegicus. Briefly: Antihypertensive activity in spontaneously hypertensive rat assessed as decrease in blood pressure at 5 mg/kg, po after 4 hrs by tail cuff method.

Turning to `Cc1ccc(-c2nn3c(=O)c4ccccc4nc3n2Cc2ccccc2)cc1`, the Activity in the assay on Rattus norvegicus [1] was 5.6%; in the assay on Rattus norvegicus [2], 16.2%; with Rattus norvegicus [3], 4.7%; in the assay with Rattus norvegicus [4] it was 9.1%; in the assay with Rattus norvegicus [5], 11.6%.

Turning to `COc1ccc(-c2nn3c(=O)c4ccccc4nc3n2Cc2ccccc2)cc1`, the Activity was 9.7% in the assay with Rattus norvegicus [1]; 15.4% with Rattus norvegicus [2]; 5.9% with Rattus norvegicus [3]; 9.6% in the assay on Rattus norvegicus [4]; 12.6% in the assay on Rattus norvegicus [5].

As to `O=c1c2ccccc2nc2n(Cc3ccccc3)c(CN3CCOCC3)nn12`, the Activity in the assay with Rattus norvegicus [1] is listed as 10%; in the assay with Rattus norvegicus [2], 19.4%; in the assay on Rattus norvegicus [3] it was 8.6%; in the assay with Rattus norvegicus [4] it was 21.7%; with Rattus norvegicus [5], 25.6%.

For `O=c1c2ccccc2nc2n(Cc3ccccc3)c(-c3ccccc3)nn12`, the Activity turned out to be 7.1% in the assay on Rattus norvegicus [1]; 14.1% in the assay on Rattus norvegicus [2]; 6.1% with Rattus norvegicus [3]; 10.1% in the assay with Rattus norvegicus [4]; 13.1% in the assay on Rattus norvegicus [5].

In the case of `Cc1nn2c(=O)c3ccccc3nc2n1Cc1ccccc1`, the Activity amounted to 31.5% in the assay on Rattus norvegicus [1]; 15.3% with Rattus norvegicus [2]; 15.3% in the assay with Rattus norvegicus [3]; 33.5% with Rattus norvegicus [4]; 38.8% in the assay on Rattus norvegicus [5].

For `O=c1c2ccccc2nc2n(Cc3ccccc3)c(CN3CCCCC3)nn12`, the Activity in the assay with Rattus norvegicus [1] was 5.1%; in the assay with Rattus norvegicus [2], 13.1%; in the assay with Rattus norvegicus [3], 3.6%; in the assay with Rattus norvegicus [4] it was 9.1%; with Rattus norvegicus [5], 16.1%.

Regarding `O=c1c2ccccc2nc2n(Cc3ccccc3)c(CCl)nn12`, the Activity in the assay on Rattus norvegicus [1] stood at 11.9%; in the assay on Rattus norvegicus [2], 6.7%; in the assay on Rattus norvegicus [3] it was 3.7%; with Rattus norvegicus [4], 15%; with Rattus norvegicus [5], 17.2%.

Consider `COc1cc2nc(N3CCN(C(=O)c4ccco4)CC3)nc(N)c2cc1OC` [PRAZOSIN], for which the Activity in the assay on Rattus norvegicus [1] stood at 24.6%; in the assay with Rattus norvegicus [2], 12.9%; in the assay on Rattus norvegicus [3] it was 30.2%; in the assay with Rattus norvegicus [4] it was 18%; in the assay on Rattus norvegicus [5], 19.6%.

Consider `CCCc1nn2c(=O)c3ccccc3nc2n1Cc1ccccc1`, for which the Activity in the assay on Rattus norvegicus [1] came to 20.5%; with Rattus norvegicus [2], 15.7%; in the assay with Rattus norvegicus [3] it was 13.4%; in the assay with Rattus norvegicus [4], 19%; in the assay with Rattus norvegicus [5], 17%.

In the case of `O=c1c2ccccc2nc2n(Cc3ccccc3)cnn12`, the Activity was found to be 7.3% in the assay with Rattus norvegicus [1]; 19.8% in the assay with Rattus norvegicus [2]; 5.4% in the assay with Rattus norvegicus [3]; 17.3% with Rattus norvegicus [4]; 20.8% with Rattus norvegicus [5].

In the case of `CCOc1ccc(-c2nn3c(=O)c4ccccc4nc3n2Cc2ccccc2)cc1`, the Activity with Rattus norvegicus [1] is listed as 7.6%; with Rattus norvegicus [2] it was 16.5%; with Rattus norvegicus [3], 6.5%; in the assay with Rattus norvegicus [4], 9.52%; in the assay with Rattus norvegicus [5], 13.6%.
